Test results: patent US20090176714A1, “METHOD OF REDUCING THE EFFECTS OF ABeta AND COMPOSITIONS THEREFORE” (priority 2004, published 2009)

Columns and labels:
[1] = test system: hippocampal slices; assay: TUNEL and Nissl staining of hippocampal slices; assay type: cell-based, mouse; settings: 25 μM or 50 μM Aβ
Procedure: Hippocampal slice cryosections from 3 animals per treatment were stained with terminal deoxynucleotidyl transferase-mediated, dUTP nick end labeling (TUNEL). Cells with DNA fragmentation were determined by the terminal deoxynucleotidyl transferase incorporation of fluorescein isothiocyanate (FITC)-12-dUTP into DNA (In Situ Cell Death Detection kit, Roche Biochem, Indianapolis, Ind.). Other sections were stained with cresyl violet acetate, and the neurons with healthy nuclei as well as the neurons with condensed and clumped chromatin were counted within the neuronal fields.
β-amyloid1-42 and reverse Aβ (Aβ42-1) were obtained from BACHEM (Torrance, Calif.). These polypeptides were dissolved in 0.1% NH3OH at 222 μM. For treatments, Aβ was aggregated at 50 μM in Neurobasal media with B-27 supplement and 1 mM glutamine at 37° C. for 24 hours. Then, the slice culture media was removed, and the slices were treated with 1 mL of 25 μM or 50 μM Aβ, reverse Aβ, or vehicle for 24 hours. Human TTR (Calbiochem) or IGF-2 (Peprotech, Rocky Hill, N.J.) was added to slices together with the Aβ treatment at final concentrations of 3 μM (TTR) or 500 nM (IGF-2). sAPPα was prepared as described previously (Mattson et al., Neuron, 10:243-254 (1993)).
Unless otherwise stated, all sAPPα treatments were performed at 1 nM 48 hours prior to the addition of Aβ. […]

[2] = test system: tau; assay: Tau phosphorylation (AT8, phospho-tau(Thr231) immunohistochemistry, immunoblot, electron microscopy) in hippocampal slices; assay type: cell-based, mouse
Procedure: Mice were killed with CO2 and immediately perfused through the heart with phosphate buffered saline (PBS). The right hemispheres were fixed in 4% paraformaldehyde (PFA) overnight, sunk in 30% sucrose, and frozen in OCT embedding medium. Hippocampal slices were fixed in 4% PFA for 20 minutes, incubated in 30% sucrose overnight, and frozen in OCT embedding medium. Frozen sections with a width of 10 μm were taken through the hippocampus. Post-mortem human tissue was formalin fixed, cut at 10 μm, and boiled for 10 minutes in a 10 mM Tris buffer, […] for antigen retrieval. IGF-2 and TTR were detected with a 1:200 dilution of the polyclonal antibody against IGF-2 (F-20) or TTR (C-20; Santa Cruz Biotechnology, Santa Cruz, Calif.). Phospho-BAD (Ser112; Cell Signaling, Beverly, Mass.), and BAD (Stressgen, Victoria, British Columbia) were detected with a 1:250 dilution of the respective polyclonal antibody. Phosphorylated tau was detected with the monoclonal AT8 antibody (1:200; Research Diagnostics, Flanders, N.J.) and anti-phospho-tau(Thr231) (1:500; Calbiochem, San Diego, Calif.). As a control pre-immune rabbit or mouse IgG (Vector Laboratories, Burlingame, Calif.) or goat IgG (Santa Cruz) was used in place of the primary antibody. A biotinylated anti-goat IgG, anti-rabbit IgG, or anti-mouse IgG was used as the secondary antibody. Finally, the Vectastain Elite ABC kit (Vector) and tyramide conjugated to either Alexa Fluor 488 or 568 (Molecular Probes, Eugene, Oreg.) were used to visualize the antibody staining. Anti-NeuN (1:250; Chemicon International, Temecula, Calif.) and 4G8 (1:250; Signet, Dedham, Mass.) together with an anti-mouse IgG secondary antibody conjugated to Alexa Fluor 488 were used to detect NeuN and Aβ. The DNA binding dyes ToPro3 (Molecular Probes) or Hoechst 33258 (Sigma, St. Louis, Mo.) were used to visualize nuclei. Sections were imaged using either the Bio-Rad Laser Scanning Confocal system or epifluorescence (Zeiss, Thornwood, N.Y.). Representative figures were obtained from 3 APPSw mice and 3 non-transgenic controls, 3 animals per treatment for hippocampal slices, or from 4 goat IgG and 4 anti-TTR antibody infused mice.
Following treatment with 50 μM Aβ or reverse Aβ for 24 hours, hippocampal slice cultures were fixed with a mixture of 2% PFA/2.5% glutaraldehyde in 0.1 M Sorensons phosphate buffer (pH 7.4) for 1 hour and then post fixed for 1 hour in 2% osmium tetroxide in the same buffer. The slices were then dehydrated in an ethanol series and embedded in Epon epoxy resin. Ultrathin sections were cut on a Reichert-Jung microtome, placed on copper grids, and stained with routine concentrations of uranyl acetate and lead citrate. Micrographs were taken with a Philips CM120 electron microscope. […]

[3] = test system: tau; assay: Tau phosphorylation in human cortical slices (AT8, phospho-tau(Thr231), electron microscopy); assay type: cell-based
Procedure: β-amyloid1-42 and reverse Aβ (Aβ42-1) were obtained from BACHEM (Torrance, Calif.). These peptides were dissolved in 0.1% NH3OH at 222 μM. For treatments, Aβ or reverse Aβ was aggregated at 50 μM in Neurobasal media with B-27 supplement and 0.5 mM glutamine at 37° C. for 24 hours. […] Human TTR (Calbiochem) was added to slices together with the Aβ treatment at final concentrations of 0.03, 0.3, and 3 μM TTR. sAPPα was obtained from Sigma (St. Louis, Mo.). Unless otherwise stated, all sAPPα treatments were performed at 1 nM 48 hours prior to the addition of Aβ. The 10 amino acid fragment of the carboxyl-terminal region of sAPPα (592-601 of APP695; SEVKMDAEFR was added according to the same protocol for sAPPα. Because a variable amount of tissue was obtained from each patient, not all treatments were performed on all patients.
Slices were fixed in 4% PFA for 20 minutes, incubated in 30% sucrose in phosphate buffered saline overnight, and frozen in OCT embedding medium. Frozen sections with a width of 10 μm were taken through each slice. Phosphorylated tau was detected with the monoclonal AT8 antibody (1:200; Research Diagnostics, Flanders, N.J.) and anti-phospho-tau(Thr231) (1:500; Calbiochem, San Diego, Calif.). As a control, pre-immune rabbit or mouse IgG (Vector Laboratories, Burlingame, Calif.) was used in place of the primary antibody. A biotinylated anti-rabbit IgG or anti-mouse IgG was used as the secondary antibody. The Vectastain Elite ABC kit (Vector) and tyramide conjugated to either Alexa Fluor 488 or 568 (Molecular Probes, Eugene, Oreg.) were used to visualize the antibody staining. Anti-NeuN (1:250; Chemicon International, Temecula, Calif.) together with an anti-mouse IgG secondary antibody conjugated to Alexa Fluor 647 was used to detect the neuronal marker NeuN. Sections were imaged using either the Bio-Rad Laser Scanning Confocal system or epifluorescence (Zeiss, Thornwood, N.Y.).

Substance: β-amyloid1-42 [Aβ]
- DNA strand breaks as indicated by TUNEL [1]: resulted in DNA strand breaks
- Percent of neurons with chromatin condensation ([1]; FIG. 1): significant increase
- AT8 (phosphorylated tau) staining of neurons in hippocampal neuronal fields ([2]; 25 μM or 50 μM): many neurons within the hippocampal neuronal fields were AT8 positive
- Phospho-tau(Thr-231) staining of neurons ([2]; 25 μM or 50 μM Aβ): several neurons stained positively for phospho-tau(Thr-231)
- Levels of phosphorylated tau, immunoblot for phospho-tau(Thr-231) ([2]; 50 μM): increased the levels of phosphorylated tau
- Filaments within the cytoplasm of neurons, electron microscopy ([2]; 50 μM Aβ, 24 hours): presence of long, straight filaments
- AT8 positive cells ([3]; 50 μM Aβ): several AT8 positive cells
- Somatic phospho-tau(Thr231) in NeuN positive neurons ([3]; 50 μM Aβ): several NeuN positive neurons with high levels of somatic phospho-tau(Thr231)
- Tangle-like structures, electron microscopy ([3]; 50 μM Aβ for 1 week): small number of neurons with tangle-like structures
